Data set [1] relates to Cyp11b1 mRNA in Y-1 cells. The experiment in a line: Cyp11b1 mRNA induction by ACTH in adrenal cell line Y-1. The data set is classed as cell-based, mouse. The following applies: for EC50: Mus musculus. On the procedure:
(§1) Y-1 cells (epithelial cells of mouse adrenal gland origin) were cultivated in F12-K medium with 10% FBS and 15% donor horse serum. Cells were treated with 10 nM ACTH, and 30 min later the Adipor1/2 agonist AdipoRon was added in a final concentration of 0.1 μM, 1 μM, 10 μM for two and a half hours. Cells were harvested, mRNA isolated and […] and Star mRNA quantified relative to β-actin (Actb) mRNA. Hatched column: vehicle control, grey column: 10 nM ACTH, white columns: 10 nM ACTH+0.1 μM, 1 μM, or 10 μM AdipoRon.
(§2) ACTH is a hormone of the Hypothalamic-pituitary-adrenal axis and stimulates the expression of Steroidogenic acute regulatory protein (StAR) and […] ([…]), which then can lead to cortisol production and, as a consequence, insulin resistance. Insulin insensitivity is observed in women diagnosed with PCOS. […] EC50 for AdipoRon for this effect is around 10 μM for StAR, and around 0.1 to 1 μM for Cyp11b1, but seems to be saturated at higher concentrations.

For another data set, the system named is LH. The experiment in a line: LH concentration in plasma of female rats at proestrous. As to conditions: female Han-Wistar rats, 50 or 100 mg/kg twice a day for one estrous cycle, d3 proestrous 7 pm. In kind it is in vivo, rat. The text has this: For this, the cycle phase of untreated naive female Han-Wistar rats was staged by vaginal smears. Rat plasma was taken at different days and time points of the cycle (d3=proestrous, d4=estrous), and LH in plasma determined by a rat pituitary magnetic bead panel (Milliplex, Cat No RPTMAG-86K). LH peak could be detected at d3 at 7 pm in the afternoon as described previously (Smith et al. 1975). Thus, this time point is well suited for measurement of the effect of AdipoR1 and/or AdipoR2 receptors activation by AdipoRon. […] For this, the cycle phase of untreated naive female Han-Wistar rats was staged by vaginal smears. Rats were treated for one estrous cycle, beginning with metestrous, with 50 mg/kg or 100 mg/kg of Adiporon in a suitable vehicle twice a day. Rat plasma was taken at d3=proestrous at 7 pm, and LH was determined by a rat pituitary magnetic bead panel (Milliplex Cat No RPTMAG-86K).

A further data set deals with Cyp17a1 mRNA. The experiment in a line: Cyp17a1 mRNA expression in ovaries of db/db mice. In kind it is in vivo. The following applies: 50 mg/kg single po dose, 0.5-24 h. The method, then:
(§3) FIGS. 6A and 6B Lhcgr mRNA expression (6A) and Cyp17a1 mRNA expression (6B) in ovaries of untreated db/db mice (black column) or db/db mice treated with 50 mg/kg Adiporon (grey column) is shown (n=3 biological replicates; error bars show SD). Expression of Cyp17a1 and Lhrgr mRNA in ovaries of adult female db/db mice were analyzed for untreated mice or mice treated with 50 mg/kg Adiporon as a single po dose given at t=0 h. At 0.5 h, 1 h, 2 h, 4 h, 24 h, mice were killed, and ovaries were taken, mRNA isolated (Qiagen, RNeasy Mini kit #74106) and mRNA quantified by Q-PCR (ThermoFisher Scientific Assay on demand #Mm00484040_ml for Cyp17a1 and Mm00442931_ml for Lhcgr).

For data set [2], the system named is wt and Adipor1−/−Adipor2−/− mice. As to conditions: FIG. 9B, cited from earlier work.
Data set [3] relates to DHEA-induced PCOS Model in rats. The data set can be described thus: DHEA-induced PCOS Model in rats. The data set is classed as in vivo, rat. As to conditions: 60 mg/kg/d DHEA sc 20 days, 50 mg/kg/d Adiporon last 10 days. An excerpt:
FIG. 8: Plasma testosterone concentration [nM] […] An autostimulation of adiponectin by stimulation of AdipoR1 and/or AdipoR2 has been described before and validates the activity of AdipoRon on the AdipoR1 and/or AdipoR2 receptors (Jardé et al. 2009).

Another data set concerns StAR mRNA in Y-1 cells. The data set can be described thus: StAR mRNA induction by ACTH in adrenal cell line Y-1. The data set is classed as cell-based, mouse. The method, then:
as §1, §2

The test system of another data set is Lhcgr mRNA. The data set can be described thus: Lhcgr mRNA expression in ovaries of db/db mice. In kind it is in vivo. The following applies: 50 mg/kg single po dose, 0.5-24 h. On the procedure: as §3
Data set [4] can be described thus: Single dose exposure experiment in db/db mice (unbound plasma concentration, LC/MS). In kind it is in vivo. The following applies: 100 mg/kg p.o. single dose, adult female db/db mice, 0.5 h, 1 h, 4 h. The method, then:
At t=0, a dose of 50 mg/kg (circle) or 100 mg/kg (squares) was given p.o. to adult female db/db mice. At each time point (0.5 h, 1 h, and 4 h) three mice were killed and the plasma concentration of unbound AdipoRon was determined by LC/MS.

The subject of a further data set is tgLH mice. The data set can be described thus: Oral glucose tolerance test in transgenic mice overexpressing LH (tgLH). The data set is classed as in vivo. The following applies: 100 mg/kg/d for four weeks, 2 g/kg glucose after 6 h fasting. On the procedure:
9A: Plasma insulin concentration [mg/L] in wt-mice (light grey column) and untreated tgLH mice (dark grey column) or tgLH mice treated with 100 mg/kg Adiporon (black column) is shown. 9B: Insulin concentrations [ng/mL] during OGTT in wt (left diagram) and Adipor1−/−Adipor2−/−tg mice (right diagram) treated with vehicle (open circle) or treated with 100 mg/kg (circle) are shown.
Increased LH secretion is causal for the development of PCOS in women, and tgLH overexpression in mice recapitulates the human PCOS phenotype in women. For this experiment, an oral glucose tolerance test was performed in control, transgenic LH overexpressing mice, and tgLH mice treated with Adiporon at 100 mg/kg/d for four weeks. To determine insulin sensitivity, plasma was taken at 15 min after giving an oral glucose gavage of 2 g/kg after fasting of the mice for 6 h in the last two days of the experiment (Andrikopoulos et al. 2008).

Data set [5] concerns steroid synthesis in db/db mice. The data set can be described thus: Plasma AUC of testosterone and progesterone in female db/db mice. In kind it is in vivo. As to conditions: single po dose 50 and 100 mg/kg, significant at 100 mg/kg (p<0.1). The method, then:
Female db/db mice, which were untreated, or treated with Adiporon at 50 mg/kg and 100 mg/kg with a single po dose, were analysed. Blood was taken at 0.5, 1, 2, 4, and 24 hours, and plasma concentrations of progesterone (ibl/Tecan Order No RE52231, Hamburg) and testosterone (Demeditec Order No DEV9911, Kiel) were determined by commercial ELISAs. Area under the curve (AUC) of total steroids was determined by an algorithm according to Gagnon et al. (1998) by GraphPadPrism software. […] The effects are significant at the higher dosage of AdipoRon of 100 mg/kg after a single application (* t-test AUC versus 100 mg/kg Adiporon (n=5 time points), double sided; p<0.1).

In data set [6] the target is T1, adiponectin receptor 1 (AdipoR1) (Homo sapiens, UniProt Q96A54).
T1 sequence (Q96A54 1-375): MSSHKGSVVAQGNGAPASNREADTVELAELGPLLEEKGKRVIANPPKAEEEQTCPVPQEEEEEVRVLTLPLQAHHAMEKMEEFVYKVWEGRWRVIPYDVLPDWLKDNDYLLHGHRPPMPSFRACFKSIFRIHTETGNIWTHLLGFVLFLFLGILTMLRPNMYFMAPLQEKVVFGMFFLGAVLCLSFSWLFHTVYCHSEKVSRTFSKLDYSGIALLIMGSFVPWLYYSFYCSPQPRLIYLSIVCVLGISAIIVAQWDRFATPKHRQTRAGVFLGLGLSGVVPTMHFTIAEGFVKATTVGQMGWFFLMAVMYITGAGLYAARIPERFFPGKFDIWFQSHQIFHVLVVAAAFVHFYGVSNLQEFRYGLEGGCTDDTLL
The following applies: Dib et al. 2017; cited from earlier work.

In data set [7] the target is T2, adiponectin receptor 2 (AdipoR2) (Homo sapiens, UniProt Q86V24).
T2 sequence (Q86V24 1-386): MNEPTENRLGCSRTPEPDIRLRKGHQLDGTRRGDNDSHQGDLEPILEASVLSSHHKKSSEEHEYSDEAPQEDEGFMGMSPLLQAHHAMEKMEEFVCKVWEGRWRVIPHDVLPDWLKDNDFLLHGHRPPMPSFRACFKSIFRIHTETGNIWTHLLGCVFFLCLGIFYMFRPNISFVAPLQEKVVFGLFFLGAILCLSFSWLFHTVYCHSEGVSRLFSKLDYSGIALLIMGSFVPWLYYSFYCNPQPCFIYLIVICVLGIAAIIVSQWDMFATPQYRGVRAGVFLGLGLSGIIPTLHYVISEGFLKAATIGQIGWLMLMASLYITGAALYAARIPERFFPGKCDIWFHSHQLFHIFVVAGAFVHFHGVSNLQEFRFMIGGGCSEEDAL
As to conditions: Dib et al. 2017; cited from earlier work.

Results on two compounds are retold here after patent publication US20220249458A1, “Agonists Of Adiponectin” (BAYER AKTIENGESELLSCHAFT, priority 2019, published 2022).

Like-named read-outs stand apart in the source and are kept apart here.

As for `O=C(COc1ccc(C(=O)c2ccccc2)cc1)NC1CCN(Cc2ccccc2)CC1` [AdipoRon, 2-(4-Benzoylphenoxy)-N-(1-benzylpiperidin-4-yl)acetamide], the EC50 is about 100 nM in data set [1] (Y-1 cell, as restated for FIG. 5 (see FIG. 2), read-out: EC50 value for effects in Y-1 cell); 100 to 1000 nM in [1] (Y-1 cells, 10 nM ACTH, AdipoRon two and a half hours, FIG. 2B, seems saturated at higher concentrations, read-out: EC50 for reduction of the induction of Cyp11b1 by ACTH); about 10000 nM in the data set with StAR mRNA in Y-1 cells (Mus musculus, 10 nM ACTH, AdipoRon two and a half hours, FIG. 2A, read-out: EC50 for reduction of the induction of StAR by ACTH). For the same compound, the “effect on induction of Cyp11b1 mRNA by ACTH” value in data set [1] (Y-1 cells, 10 nM ACTH + 0.1, 1 or 10 μM) is given as “dose-dependently reduces the induction”. Further, the “LH concentration in plasma” value with LH is recorded as “dose-dependently reduces the induction of LH”. In addition, the “Cyp17a1 mRNA expression in ovaries” value with Cyp17a1 mRNA is reported as “decreases the expression”. Besides, the “Insulin concentrations during OGTT, Adipor1−/−Adipor2−/− mice” value in [2] (mice double negative for Adiponectin Receptors 1 and 2, 100 mg/kg) was “no effect on plasma insulin”. For the same compound, the “Insulin concentrations during OGTT, wild-type mice” value in data set [2] (wt mice, 100 mg/kg) is given as “comparable data”. In addition, in [3], the plasma adiponectin concentration result was “normalizes plasma adiponectin”. The Plasma testosterone concentration result in data set [3] (p<0.05) is reported as “significantly reduces the increase in Testosterone”. Further, the “effect on induction of StAR mRNA by ACTH” value in the data set with StAR mRNA in Y-1 cells (10 nM ACTH + 0.1, 1 or 10 μM) is listed as “dose-dependently reduces the induction”. Besides, in the data set on Lhcgr mRNA, the “Lhcgr (LH receptor) mRNA expression in ovaries” value is on record as “decreases the expression”. Also, the “plasma concentration of unbound AdipoRon versus EC50” value in data set [4] is listed as “reaches the EC50 value”. In addition, the “insulin sensitivity (plasma insulin 15 min after oral glucose)” value with tgLH mice is on record as “insulin sensitivity is increased”. The “plasma AUC of progesterone” value in data set [5] is on record as “increases Progesterone plasma concentration”. For the same compound, the “plasma AUC of testosterone” value in data set [5] was “reduces Testosterone plasma concentration”.

As to `COc1ccc(CN2CCN(C(=O)CCNC(=O)c3ccc(C(C)(C)C)cc3)CC2)cc1` [Compound 112254, 4-(tert-Butyl)-N-(3-(4-(4-methoxybenzyl)piperazin-1-yl)-3-oxopropyl)benzamide], in [6], the “binding to AdipoR1” value is “binds to AdipoR1 and AdipoR2”. Also, the “binding to AdipoR2” value in [7] was “binds to AdipoR1 and AdipoR2”.
